# From patent publication US20090214669A1, “Combination anticancer therapy and pharmaceutical compositions therefore” (priority 2004, published 2009)
# “Also recorded” adds a separate entry of the source. Read-outs that look alike come from different tables or passages of the source.
# Key:
# [1] = system: PROb subcutaneous colon tumors; format: in vivo, BDIX rats
# [2] = system: ProB cells; settings: cited from earlier work
# [3] = Pharmacokinetic data of OM-174 in man; settings: human, in vivo, median and range; for Vd: read-out: Vss
# [4] = Single dose i.v. infusion study of OM-174 in cancer patients (tolerability, cytokines); format: in vivo
# Method: Doses higher than 1 mg OM-174/m^2 by i.v. infusion were reached without unacceptable toxicity according to non-haematological grade III and haematological grade IV NCI Common Toxicity Criteria.
# Secretion occurred in all steps, and appeared more “patient”- than “dose”-dependent.
# The results of this single dose study led to the selection of three doses (0.6, 0.8, and 1.0 mg OM-174/m^2) for repeated i.v. injections (5 to 15 injections), used in a phase Ib study.
# [5] = system: PROb cells; assay: BDIX/PROb peritoneal carcinomatosis, cisplatin combined with OM-174, survival; format: in vivo, BDIX rats; settings: cisplatin 3 mg/kg i.v. day 21; OM-174 1 mg/kg i.v., 5 injections every 5th day from day 28 or 35
# Method: Colon cancer PROb cells were originally obtained from a tumor of a BDIX rat induced by 1,2-dimethylhydrazine.
# The BDIX strain of rats was established in 1937 by H. Druckrey. Nowadays these rats come from Iffa-Credo (L'Asbresle, France).
# BDIX rats, 4 months±1 month at the beginning of the experiment, 7 animals/group, received i.p. cultured syngenic PROb cells (i.p) on day 0. Cisplatin (3 mg/kg) was injected i.v. on day 21, and OM-174 treatment (1 mg/kg, 5 injections i.v. in the penile vein every 5th day) started either on days 28 or 35. Survival was followed until day 72 in the example presented here.
# In this example, cisplatin (3 mg/kg i.v) is given on day 21. A further immunostimulating treatment with OM-174 is started only on day 28 or 35 (1 mg/kg, 5 injections i.v. every 5th day).
# [6] = system: YAC-1 cells; assay: NK activity of spleen cells, 4-hour 51Cr-release assay
# From the text: Mice were sacrificed by cervical dislocation on day 14 after tumour inoculation.
# In vitro-passaged YAC-1 cells (a Moloney-virus induced mouse T cells lymphoma of A/SN origin), and in vivo-passaged B16 melanoma cells, were used as target cells in a chromium-release assay. B16 melanoma cells were obtained from tumour-bearing mice, seeded in cell-culture flasks (Falcon, Becton Dickinson and Co., Plymouth, England) and used within the first week of culture in CM. B16 and YAC-1 cell lines were obtained from the laboratory collection, and were originally obtained from the American Tissue Culture Collection (ATCC).
# The cytotoxic activity of the effector cells collected from individual mice was measured by a standard 4-hour ^51Cr-release assay. Briefly, target cells were harvested from the cultures, washed twice, resuspended at 5×10^6 cells in 0.9 ml of CM and labelled with 100 μCi (^51Cr) sodium chromate (New England Nuclear, Boston, Mass.) for 1 hour at 37° C. in a 5% CO2 incubator. […] The effector cells suspension was added to quadruplicate wells to give three E/T ratios (i.e. 100:1, 50:1, 25:1) in a final volume of 200 μl per well. The plates were then incubated for 4 hours at 37° C. in a 5% CO2 incubator, 100 μl of supernatants were collected from each well, and the radioactivity was measured using a gamma counter. Total mean cytotoxicity±S.E.M. were calculated from quadruplicate cpm values from individual spleens.
# It has been therefore measured the cytotoxic activity of splenocytes against NK-sensitive (YAC-1) tumour cells.
# [7] = system: EMT-6 cells; assay: NO production (nitrite, Griess method) by EMT-6 cells exposed to OM-174; format: cell-based, mouse; settings: 16 hours
# Method: Murine mammary adenocarcinoma EMT-6 cells were cultured in RPMI medium+10% bovine calf serum in plastic flasks. EMT-6 monolayer cultures grown to early confluence were exposed to OM-174 for 16 hours in both conditions (21% and 1% oxygen). After treatment with OM-174, nitrite determination using the classical Griess method was performed. Values were normalized for 200'000 cells per well.
# [8] = system: B16 melanoma; assay: B16 melanoma model: tumour growth and survival time; format: in vivo, C57BL/6 mice; settings: CY 200 mg/Kg i.p. day 7; OM-174 1 mg/kg i.p. days 8, 13, 18, 23, 28; vs untreated controls
# Method: Four to six weeks-old male C57BL/6 mice were purchased from Charles River (Calco, Corno, Italy). B 16 melanoma tumour cells were serially passaged subcutaneously (s.c.) in syngenic mice. On day 0, mice were injected s.c. in the right flank with 2×10^5 B16 melanoma cells. Tumour growth was measured daily in each mouse, using calipers, and mean tumour diameter per day was calculated. At day 7 after tumour injection, all mice with s.c. tumours of about 2-3 mm diameter were divided into different experimental groups, i.e. phosphate buffered saline (PBS)-injected control 3, CY, OM-174 or CY with OM-174.
# Cyclophosphamide (Sigma, St. Louis, Mo.) was dissolved at 20 mg/ml in PBS immediately before use, and 0.2 ml per mouse were injected intraperitoneally. Each treated animal received a single dose of 200 mg/Kg CY on day 7.
# Kaplan-Meier method was used to estimate the survivor functions and Log-rank test was performed for testing the homogeneity of survival functions across the four groups (control, CY, OM-174, CY+OM-174).
# Tumor growth was analyzed by T-test for unpaired data.
# [9] = system: spleen cells expressing CD4, CD8, and NK1.1; assay: Flow cytometric analysis of spleen cell subsets; format: in vivo, C57BL/6 mice; settings: for NK (%): NK1.1 positive cells vs total spleen cells; for NK (%) / CD4^+ (%) / CD8^+ (%): mean ± S.E.M; for CD4^+ (%) / CD8^+ (%): positive cells vs total spleen cells
# Method: Splenocytes from individual mice were analysed by flow cytometry. The following monoclonal antibodies were used for double fluorescence analysis of spleen cell subsets: fluorescein (FITC)-conjugated anti-mouse NK1.1 PE (PharMingen, San Diego, Calif.), PE-conjugated anti-mouse CD4 (PharMingen), FITC-conjugated anti-mouse CD8 (PharMingen). Approximately 1×10^6 spleen cells were resuspended in […] of CM and staining was performed at 4° C. for 30 minutes. Cells were then washed twice in PBS containing 0.02% sodium azide and flow cytometric analysis was performed using a FACscan flow cytometer (Becton Dickinson).
# Fluorescence data were collected using a 488 nm excitation wavelength from a 15 mW air-cooled argon-ion laser. […] A minimum of 5,000 events were collected on each sample and acquired in list mode by a Hewlett Packard 9000 computer. To exclude dead cells, debris, non lymphoid cells, and cell aggregates, data collection was gated on live spleen lymphocytes by forward and side angle scatter. Data are represented as the percentage of positive cells over the total number of cells counted.
# [10] = system: EMT-6 cells; assay: Indirect radiosensitisation via OM-174-induced conditioned medium; format: cell-based, mouse; settings: 3 μg/ml versus 0.3 μg/ml; conditioned medium from Whistar rats
# [11] = B16 tumour-bearing mice, day 14
smiles,measurement,setting,value
CCCCCCCCCCCC(=O)O[C@H](CCCCCCCCCCC)CC(=O)N[C@@H]1C(O)[C@H](OP(=O)(O)O)C(CO)O[C@H]1OCC1O[C@H](OP(=O)(O)O)C(NC(=O)C[C@H](O)CCCCCCCCCCC)C(O)[C@@H]1O (some centres unmarked) [OM-174],Number of cured animals/total number of animals,"[1]; CY 25 mg/kg i.p. day 36, i.t. immunostimulant from day 43 (OM-174 200 μg x12, CpG 100 μg x12, BCG days 43 and 50)",1/6
same,"Antitumoral effect of single treatment on large, established PROb tumors (in words, FIG. 3)","[1]; agent alone, comparatively to untreated animals",no antitumoral effect
same,Effect of i.t. immunostimulant on the antitumor activity of CY (in words),[1]; i.p. CY day 36 combined with i.t. immunostimulant from day 43,strongly enhanced
same,Complete and lasting tumor regression (animals),[1]; i.p. CY day 36 followed by i.t. OM-174 from day 43,4/6
same,Therapeutic activity per se (in words),"[2]; treatment started up to 14 days after tumour induction, WO 95/14026",strong therapeutic activity
same,Complete remissions,"[2]; treatment starts 14 days after the injection of the cancer cells, peritoneal carcinomatoses",90%
same,clearance,"[3]; intravenous, Cancer patients",1.7 mL/min
same,half-life,"[3]; intravenous, Cancer patients",20 h
same,Vd,"[3]; intravenous, Cancer patients",2.9 L
same,clearance,[3]; Healthy volunteers,2.82 mL/min
same,half-life,[3]; Healthy volunteers,23 h
same,Vd,[3]; Healthy volunteers,5.1 L
same,Tolerability,[4],well tolerated
same,Doses reached without unacceptable toxicity,"[4]; i.v. infusion, non-haematological grade III and haematological grade IV NCI Common Toxicity Criteria",higher than 1 mg OM-174/m^2
same,"Cytokine secretion (TNF-α, IL-1b, IL-1ra, IL-6, IL-8, sTNF-RI, sTNF-RII, IL-10, IL-2, IL-2sRa, IFN-γ)",[4]; single dose study,secretion profile consistent with that of lipid A derivatives
same,"Antitumour activity / survival (in words, FIG. 4)",[5],anticancer effect is lost
same,NK activity (in words),"[6]; B16 melanoma-injected mice, day 14",dramatic increase
same,cytotoxicity at 1 mg/kg,"[6]; Mus musculus, YAC-1, ip, read-out: NK % cytotoxicity",6.3 ± 1.7%
same,NK cell activity (in words),"[6]; normal mice, vs untreated controls",dramatic increase
same,NK % cytotoxicity,"[6]; normal mice, E/T ratio 25:1, mean ± S.E., five mice",10.39 ± 1.0 %
same,"NO production (in words, FIG. 6)",[7]; hypoxic (1% oxygen) condition,increased production of NO
same,"NO production (in words, FIG. 6)",[7]; normal oxygen levels (21% oxygen),low amounts of NO
same,"B16 tumour growth (in words, FIG. 1)",[8],partially inhibits tumour progression; also recorded: inhibited slightly but significantly
same,"Survival time (MST) of mice (in words, FIG. 2)",[8],slightly extends the survival time; also recorded: increased slightly but significantly
same,NK (%),[9]; [11],7.5 ± 0.5%
same,CD4^+ (%),[9]; [11],27.0 ± 2.0%
same,CD8^+ (%),[9]; [11],9.3 ± 1.8%
same,"Percentages of CD4^+, CD8^+ and NK1.1 positive spleen cells (in words)",[9]; normal and tumour-bearing mice,increased the percentages
same,NK (%),[9]; normal mice,11.6 ± 2.1%
same,CD4^+ (%),[9]; normal mice,34.0 ± 2.5%
same,CD8^+ (%),[9]; normal mice,12.6 ± 1.5%
same,"Indirect radiosensibilizing effect via conditioned medium (in words, FIG. 8)",[10],clearly more radiosensibilizing
